The record followed here is patent US20250011404A1, “TARGETING APOE ENHANCES T-CELL KILLING IN CANCER IMMUNOTHERAPY” (Children's National Medical Center, priority 2021, published 2025).

Entries after “also recorded” stand apart in the source; their conditions may differ.

The subject of assay [1] is naïve C57/BL6 splenocytes co-cultured with immunogenic B16 tumor cells. Nature of the assay: IFNγ ELISA, naïve splenocytes co-cultured with Myc-inhibited immunogenic B16 tumor cells. It counts as cell-based, mouse. As for the experimental part:
To further investigate the influence of tumor secreted apoE on immune cell function, immunogenic B16 tumor cells (B16 cells treated with Myc inhibitors (0.25 μM BET+0.25 μM JQ1 for 4 days) were irradiated at 60 Gray and co-cultured with naïve C57/BL6 splenocytes in the presence of either apoE mimetic COG133 at 0.3, 3 and 9 μM or anti-APOE blocking antibody at 1, 10 and 30 μg/ml concentrations. Prior work has shown the immunogenic effect of treating cancer cells with Myc inhibitors and irradiation. IFNγ production was quantified by ELISA at 48 h. Splenocytes produced high levels of IFNγ when co-cultured with Myc-inhibited immunogenic B16 cells as shown in FIGS. 3A-3C. Exposure of these cells to apoE mimetic COG133 repressed IFNγ production (6-fold reduction) (FIG. 3A), while the presence of Anti-APOE antibody enhanced IFNγ production (3-fold increase) (FIG. 3B). We also tested IFNγ production from vaccinated splenocytes following co-culture with treated and untreated B16 cells in the presence of COG 133. […] In addition to IFNγ, we also quantified other cytokine/chemokines using ProcartaPlex multiplex immunoassay. […]
WT and apoE^−/− mice or WT and lrp8^−/− mice, were inoculated with either WT B16 or apoE^−/− B16 cells, with anti-CTLA4 antibody on day 0. […] Readings were measured at 450 nm using the EnSpire 2300 Multilabel plate reader (Perkin Elmer, Waltham, Massachusetts, US).
In general terms: ELISA stands for enzyme-linked immunosorbent assay.

Assay [2] has as its system vaccinated splenocytes co-cultured with Myc inhibited B16 tumor cells. Nature of the assay: IFNγ ELISA, vaccinated splenocytes co-cultured with immunogenic B16 cells. The assay is classed as cell-based, mouse. Particulars: vaccinated WT splenocytes + Myc-inhibited B16 cells, 48 hr, in presence of COG133, dose dependent. As for the experimental part: To further investigate the influence of tumor secreted apoE on immune cell function, immunogenic B16 tumor cells (B16 cells treated with Myc inhibitors (0.25 μM BET+0.25 μM JQ1 for 4 days) were irradiated at 60 Gray and co-cultured with naïve C57/BL6 splenocytes in the presence of either apoE mimetic COG133 at 0.3, 3 and 9 μM or anti-APOE blocking antibody at 1, 10 and 30 μg/ml concentrations. Prior work has shown the immunogenic effect of treating cancer cells with Myc inhibitors and irradiation. IFNγ production was quantified by ELISA at 48 h. Splenocytes produced high levels of IFNγ when co-cultured with Myc-inhibited immunogenic B16 cells as shown in FIGS. 3A-3C. Exposure of these cells to apoE mimetic COG133 repressed IFNγ production (6-fold reduction) (FIG. 3A), while the presence of Anti-APOE antibody enhanced IFNγ production (3-fold increase) (FIG. 3B). We also tested IFNγ production from vaccinated splenocytes following co-culture with treated and untreated B16 cells in the presence of COG 133. […] In addition to IFNγ, we also quantified other cytokine/chemokines using ProcartaPlex multiplex immunoassay. […] In addition, using ProcartaPlex multiplex immunoassay, we also quantified other cytokines/chemokines produced in the reaction. […] Readings were measured at 450 nm using the EnSpire 2300 Multilabel plate reader (Perkin Elmer, Waltham, Massachusetts, US).

Take “COG133: a fragment of apoE peptide, which competes with the apoE holoprotein for binding the LDL receptors and acts as an apoE mimetic”: the “splenocyte production of IFNγ in presence of COG133” value in assay [1] (naïve and vaccinated splenocytes + BET/JQ1 treated B16 cells (FIG. 3A)) is “markedly reduced”. In assay [1] (naïve splenocytes + Myc-inhibited irradiated B16 cells, COG133 at 0.3, 3 and 9 μM, ELISA at 48 h), the “IFNγ production, reduction” value is recorded as 6 fold. The “IFNγ production from vaccinated splenocytes” value in assay [2] was “inhibited; also recorded: inhibitory; also recorded: significantly suppressed”; in assay [2] (listed as COG 133) it was “suppressed”.
